In PMC5762338, “A novel orally available Syk/Src/Jak2 inhibitor, SKLB-850, showed potent anti-tumor activities in B cell lymphoma (BCL) models” (Oncotarget, 2017):
Where “and” joins values, the source holds several entries; their conditions need not be identical. Identical values can stand only once.

What was measured:
MDA-MB-231 = test: MTT anti-viability assay; type: cell-based; conditions: MDA-MB-231, Human breast cancer cell, 72 hours
Procedure: (§1) In vitro anti-viability activities of SKLB-850 against various tumor cell lines were measured using the MTT method.
(§2) Human cancer cell lines Ramos-ZHL, HBL-1, SuDHL-6, LY-10, LY-1, RAJI, MDA-MB-231, SW1990, SMMC7721, MCF-7, CFPAC-1, HPAC, A549 and H358 were obtained from American Type Culture Collection (ATCC). All tumor cell lines were maintained according to the ATCC procedures and passaged for less than 6 months after receipt for resuscitation. These cells were cultured in RPMI-1640 supplemented with 10% fetal bovine serum (FBS).
(§3) Cell proliferation was measured using the MTT assay as previously described. Various cells including were treated with indicated concentrations of SKLB-850 for 72 hours. R788 (Selleck.cn) was served as a positive control. Each assay was replicated 3 times.

SMMC7721 = test: MTT anti-viability assay; type: cell-based; conditions: SMMC-7721, SMMC7721, Human hepatocellular carcinoma cell, 72 hours
Procedure: as §1, §2, §3

HBL-1 = test: MTT anti-viability assay; type: cell-based; conditions: HBL1, HBL-1, Human diffuse large B cell lymphoma, 72 hours
Procedure: as §1, §2, §3

CFPAC-1 = test: MTT anti-viability assay; type: cell-based; conditions: CFPAC-1, Human pancreatic cancer cell, 72 hours
Procedure: as §1, §2, §3

[1] = Preliminary toxicity evaluation in treated mice; type: in vivo
Procedure: A preliminary toxicity evaluation to SKLB-850 was also carried out. […] Besides, toxic pathologic changes in liver, lung, kidney, spleen, and heart were not detected by microscopic examination (Figure 5C).
To investigate potential side effects or toxicity on mice during the treatment, anorexia skin ulceration, weight loss, diarrhea, and toxic death were observed continuously for relevant indexes. The tissues of heart, liver, spleen, lung, and kidney were stained with hematoxylin and eosin (H&E). ALT, AST, BUN and CREA in serum were measured by the National Chengdu Center for Safety Evaluation of Traditional Chinese Medicine using commercially available kits.

Src = molecular target: T1, Src (Homo sapiens, UniProt P12931); test: Kinase inhibition, 33P radiometric assay (Millipore Kinase Profiler); type: biochemical
T1 construct: purchased Millipore (Kinase Profiler service)
Procedure: (§4) Kinase inhibitory potency of SKLB-850 against a number of selected kinases were measured with gold-standard^33 P radio-labeled technology. […] For the remaining 11 kinases tested, SKLB-850 exibited very weak or no activity (IC50 > 10 μM).
(§5) The IC50 values of SKLB-850 for kinase inhibition in vitro were measured by radiometric assays conducted by Kinase Profiler service provided by Millipore as described in Pan’s study.

FAK = molecular target: T2, FAK (Homo sapiens, UniProt Q05397); test: as above; type: biochemical
T2 construct: purchased Millipore (Kinase Profiler service)
Procedure: as §4, §5

JAK2 = molecular target: T3, JAK2 (Homo sapiens, UniProt O60674); test: as above; type: biochemical
T3 construct: purchased Millipore (Kinase Profiler service)
Procedure: as §4, §5

GRK1 = molecular target: T4, GRK1 (Homo sapiens, UniProt Q15835); test: as above; type: biochemical
T4 construct: purchased Millipore (Kinase Profiler service)
T4 sequence (Q15835 whole entry): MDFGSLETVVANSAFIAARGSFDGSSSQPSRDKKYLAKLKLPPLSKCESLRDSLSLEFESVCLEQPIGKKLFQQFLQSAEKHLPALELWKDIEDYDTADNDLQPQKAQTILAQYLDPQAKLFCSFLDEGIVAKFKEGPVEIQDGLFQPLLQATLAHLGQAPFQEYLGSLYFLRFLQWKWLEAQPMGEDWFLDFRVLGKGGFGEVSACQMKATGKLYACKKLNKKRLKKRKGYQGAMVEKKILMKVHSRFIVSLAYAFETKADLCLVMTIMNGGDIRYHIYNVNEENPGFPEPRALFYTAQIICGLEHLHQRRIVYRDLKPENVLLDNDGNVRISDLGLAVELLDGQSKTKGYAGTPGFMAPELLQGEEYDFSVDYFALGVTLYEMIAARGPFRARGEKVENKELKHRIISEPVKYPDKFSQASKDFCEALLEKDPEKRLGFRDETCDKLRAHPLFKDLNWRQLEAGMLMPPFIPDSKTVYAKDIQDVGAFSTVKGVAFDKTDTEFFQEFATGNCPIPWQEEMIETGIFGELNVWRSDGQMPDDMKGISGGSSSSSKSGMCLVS
Procedure: as §4, §5

CDK3 = molecular target: T5, CDK3 (Homo sapiens, UniProt Q00526); test: as above; type: biochemical
T5 construct: purchased Millipore (Kinase Profiler service)
Procedure: as §4, §5

GSK3β = molecular target: T6, GSK3β (Homo sapiens, UniProt P49841); test: as above; type: biochemical
T6 construct: purchased Millipore (Kinase Profiler service)
T6 sequence (P49841 whole entry): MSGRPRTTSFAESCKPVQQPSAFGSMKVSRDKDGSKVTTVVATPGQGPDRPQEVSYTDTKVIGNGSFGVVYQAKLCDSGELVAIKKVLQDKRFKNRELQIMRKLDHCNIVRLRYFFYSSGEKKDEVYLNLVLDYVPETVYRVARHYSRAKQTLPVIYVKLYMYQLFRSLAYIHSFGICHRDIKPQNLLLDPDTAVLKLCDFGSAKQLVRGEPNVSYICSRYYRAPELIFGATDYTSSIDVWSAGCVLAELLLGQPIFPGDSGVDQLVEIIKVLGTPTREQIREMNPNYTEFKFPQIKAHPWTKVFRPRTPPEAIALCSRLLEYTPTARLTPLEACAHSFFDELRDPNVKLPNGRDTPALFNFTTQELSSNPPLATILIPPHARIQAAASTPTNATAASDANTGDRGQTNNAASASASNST
Procedure: as §4, §5

PKCα = molecular target: T7, PKCα (Homo sapiens, UniProt P17252); test: as above; type: biochemical
T7 construct: purchased Millipore (Kinase Profiler service)
Procedure: as §4, §5

PKBα = molecular target: T8, PKBα (Homo sapiens, UniProt P31749); test: as above; type: biochemical
T8 construct: purchased Millipore (Kinase Profiler service)
T8 sequence (P31749 whole entry): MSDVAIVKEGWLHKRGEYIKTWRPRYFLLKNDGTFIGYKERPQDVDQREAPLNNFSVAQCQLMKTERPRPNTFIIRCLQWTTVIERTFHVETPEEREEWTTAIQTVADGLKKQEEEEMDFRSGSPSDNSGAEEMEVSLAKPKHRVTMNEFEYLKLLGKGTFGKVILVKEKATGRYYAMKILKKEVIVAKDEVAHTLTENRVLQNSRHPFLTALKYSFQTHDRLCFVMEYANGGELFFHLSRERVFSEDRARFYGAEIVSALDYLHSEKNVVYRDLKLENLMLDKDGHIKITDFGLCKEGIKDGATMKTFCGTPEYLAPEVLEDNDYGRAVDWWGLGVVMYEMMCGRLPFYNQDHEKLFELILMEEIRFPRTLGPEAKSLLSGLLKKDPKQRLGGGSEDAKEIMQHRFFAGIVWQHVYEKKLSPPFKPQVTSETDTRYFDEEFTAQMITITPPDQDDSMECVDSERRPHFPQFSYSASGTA
Procedure: as §4, §5

mTOR = molecular target: T9, mTOR (Homo sapiens, UniProt P42345); test: as above; type: biochemical
T9 construct: purchased Millipore (Kinase Profiler service)
Procedure: as §4, §5

Pim-2 = molecular target: T10, Pim-2 (Homo sapiens, UniProt Q9P1W9); test: as above; type: biochemical
T10 construct: purchased Millipore (Kinase Profiler service)
Procedure: as §4, §5

EGRF = molecular target: T11, EGRF (Homo sapiens, UniProt P00533); test: as above; type: biochemical; conditions: EGRF (text: EGFR)
T11 construct: purchased Millipore (Kinase Profiler service)
T11 sequence (P00533 25-1210): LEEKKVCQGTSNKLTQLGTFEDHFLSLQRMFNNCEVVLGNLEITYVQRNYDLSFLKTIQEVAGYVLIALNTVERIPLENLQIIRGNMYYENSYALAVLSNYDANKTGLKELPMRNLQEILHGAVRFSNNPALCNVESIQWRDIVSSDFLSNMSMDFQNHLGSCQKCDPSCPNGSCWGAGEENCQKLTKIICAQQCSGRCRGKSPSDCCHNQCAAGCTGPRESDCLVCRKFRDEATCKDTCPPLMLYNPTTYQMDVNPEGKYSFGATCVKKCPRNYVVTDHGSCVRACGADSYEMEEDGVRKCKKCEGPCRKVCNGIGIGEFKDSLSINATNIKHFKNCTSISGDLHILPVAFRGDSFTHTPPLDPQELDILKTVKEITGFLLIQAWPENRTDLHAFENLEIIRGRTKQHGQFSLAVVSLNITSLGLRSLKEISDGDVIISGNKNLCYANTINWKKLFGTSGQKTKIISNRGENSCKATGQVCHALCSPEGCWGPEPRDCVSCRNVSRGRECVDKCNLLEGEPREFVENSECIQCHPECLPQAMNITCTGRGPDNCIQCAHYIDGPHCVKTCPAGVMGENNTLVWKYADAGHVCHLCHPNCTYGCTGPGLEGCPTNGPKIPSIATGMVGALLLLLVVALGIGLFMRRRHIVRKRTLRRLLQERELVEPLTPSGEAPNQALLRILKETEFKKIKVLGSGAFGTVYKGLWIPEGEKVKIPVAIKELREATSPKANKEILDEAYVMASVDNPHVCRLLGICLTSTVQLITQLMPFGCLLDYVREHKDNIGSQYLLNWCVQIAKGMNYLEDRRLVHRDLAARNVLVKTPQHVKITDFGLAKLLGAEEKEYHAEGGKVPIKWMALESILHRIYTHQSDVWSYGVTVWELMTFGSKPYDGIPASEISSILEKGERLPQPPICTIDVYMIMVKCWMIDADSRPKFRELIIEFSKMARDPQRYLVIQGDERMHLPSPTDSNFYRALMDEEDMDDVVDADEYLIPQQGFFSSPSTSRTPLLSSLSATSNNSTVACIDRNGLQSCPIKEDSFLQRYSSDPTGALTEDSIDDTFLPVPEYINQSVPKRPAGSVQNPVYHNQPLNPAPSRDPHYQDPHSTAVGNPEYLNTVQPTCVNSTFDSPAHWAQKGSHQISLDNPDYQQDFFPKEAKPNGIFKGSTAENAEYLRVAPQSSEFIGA
Procedure: as §4, §5

Pim-1 = molecular target: T12, Pim-1 (Homo sapiens, UniProt P11309); test: as above; type: biochemical
T12 construct: purchased Millipore (Kinase Profiler service)
T12 sequence (P11309 whole entry): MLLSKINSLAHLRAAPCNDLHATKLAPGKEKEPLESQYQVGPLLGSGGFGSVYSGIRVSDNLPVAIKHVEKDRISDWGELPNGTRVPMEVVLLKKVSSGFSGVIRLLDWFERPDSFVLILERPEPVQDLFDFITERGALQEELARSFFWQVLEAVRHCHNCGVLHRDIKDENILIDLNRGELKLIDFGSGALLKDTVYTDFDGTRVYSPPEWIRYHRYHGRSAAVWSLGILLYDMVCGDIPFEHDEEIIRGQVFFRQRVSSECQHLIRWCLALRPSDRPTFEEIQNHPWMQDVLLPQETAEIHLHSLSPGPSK
Procedure: as §4, §5

MKK4 = molecular target: T13, MKK4 (Mus musculus, UniProt P47809); test: as above; type: biochemical
T13 construct: purchased Millipore (Kinase Profiler service)
T13 sequence (P47809 2-397 limits assumed): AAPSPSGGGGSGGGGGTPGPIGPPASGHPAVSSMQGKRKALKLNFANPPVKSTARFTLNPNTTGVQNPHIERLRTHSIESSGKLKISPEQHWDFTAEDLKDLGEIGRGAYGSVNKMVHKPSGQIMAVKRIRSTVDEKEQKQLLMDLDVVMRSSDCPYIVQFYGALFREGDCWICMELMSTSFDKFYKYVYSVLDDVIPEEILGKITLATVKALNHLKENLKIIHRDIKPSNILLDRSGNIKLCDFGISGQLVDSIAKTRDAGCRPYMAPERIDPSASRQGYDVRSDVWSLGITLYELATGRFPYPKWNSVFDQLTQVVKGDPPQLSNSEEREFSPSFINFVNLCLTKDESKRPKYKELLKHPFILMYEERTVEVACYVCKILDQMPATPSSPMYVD
Procedure: as §4, §5

Syk = molecular target: T14, Syk (Homo sapiens, UniProt P43405); test: as above; type: biochemical
T14 construct: purchased Millipore (Kinase Profiler service)
Procedure: as §4, §5

GSK3α = molecular target: T15, GSK3α (Homo sapiens, UniProt P49840); test: as above; type: biochemical
T15 construct: purchased Millipore (Kinase Profiler service)
Procedure: as §4, §5

EphB3 = molecular target: T16, EphB3 (Homo sapiens, UniProt P54753); test: as above; type: biochemical
T16 construct: purchased Millipore (Kinase Profiler service)
T16 sequence (P54753 34-998): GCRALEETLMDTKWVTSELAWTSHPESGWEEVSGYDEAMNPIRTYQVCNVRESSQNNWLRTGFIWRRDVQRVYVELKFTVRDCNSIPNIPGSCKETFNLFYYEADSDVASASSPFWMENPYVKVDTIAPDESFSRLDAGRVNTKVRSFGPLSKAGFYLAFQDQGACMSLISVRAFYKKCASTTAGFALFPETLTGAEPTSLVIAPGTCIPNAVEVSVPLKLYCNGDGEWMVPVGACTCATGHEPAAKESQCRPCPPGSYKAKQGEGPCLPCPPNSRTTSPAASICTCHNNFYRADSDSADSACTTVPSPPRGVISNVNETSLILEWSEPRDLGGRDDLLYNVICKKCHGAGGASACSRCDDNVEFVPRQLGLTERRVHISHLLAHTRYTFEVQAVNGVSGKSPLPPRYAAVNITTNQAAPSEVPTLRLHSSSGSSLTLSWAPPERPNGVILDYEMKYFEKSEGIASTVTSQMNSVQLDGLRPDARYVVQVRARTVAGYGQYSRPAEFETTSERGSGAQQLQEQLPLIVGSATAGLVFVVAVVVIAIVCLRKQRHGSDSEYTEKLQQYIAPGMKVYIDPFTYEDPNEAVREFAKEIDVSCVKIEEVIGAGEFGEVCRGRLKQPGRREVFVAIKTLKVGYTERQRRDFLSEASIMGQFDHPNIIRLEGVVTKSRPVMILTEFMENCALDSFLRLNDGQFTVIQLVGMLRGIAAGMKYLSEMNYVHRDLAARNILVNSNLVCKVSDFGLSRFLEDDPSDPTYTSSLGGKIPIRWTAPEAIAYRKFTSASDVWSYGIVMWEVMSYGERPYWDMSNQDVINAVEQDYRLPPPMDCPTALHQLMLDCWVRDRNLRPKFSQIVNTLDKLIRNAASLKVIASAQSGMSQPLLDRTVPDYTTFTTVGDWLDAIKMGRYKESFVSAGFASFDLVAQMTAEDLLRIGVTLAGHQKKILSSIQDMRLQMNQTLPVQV
Procedure: as §4, §5

PIP4K2α = molecular target: T17, PIP4K2α (Homo sapiens, UniProt P48426); test: as above; type: biochemical
T17 construct: purchased Millipore (Kinase Profiler service)
Procedure: as §4, §5

Q: Which IC50 (MDA-MB-231) does the source give for `CN1CCN(c2ccc(Nc3ncc(F)c(Nc4ccc(Cl)cc4C(N)=O)n3)cc2)CC1` [SKLB-850, 5-chloro-2-((5-fluoro-2-((4-(4-methylpiperazin-1-yl)phenyl)amino)pyrimidin-4-yl)amino) benzamide] here?
A: Its IC50 is 2.19 µM.

Q: And the IC50 (SMMC7721)?
A: The IC50 was 2.2 µM.

Q: What about the IC50 (HBL-1) of the same compound?
A: Its IC50 is 0.69 µM.

Q: What about the IC50 (CFPAC-1) of the same compound?
A: The IC50 was 7.24 µM.

Q: And the “toxic pathologic changes in liver, lung, kidney, spleen, and heart (H&E, in words)” value ([1]; microscopic examination)?
A: The value was “not detected”.

Q: And the “mouse body weight (in words)” value ([1]; treated groups, monitored once every three days)?
A: The value was “no significant differences in weights”.

Q: And the “levels of ALT, AST, BUN, and CREA of serum (in words)” value ([1]; treated mice)?
A: Its value is “no obvious changes”.

Q: What about the IC50 (Src) of the same compound?
A: Its IC50 is 0.025 µM.

Q: What about the IC50 (FAK) of the same compound?
A: Its IC50 is 0.39 µM.

Q: And the IC50 (JAK2)?
A: Its IC50 is 0.047 µM.

Q: What about the IC50 (GRK1) of the same compound?
A: Its IC50 is over 10 µM.

Q: And the IC50 (CDK3)?
A: The IC50 was over 10 µM.

Q: What about the IC50 (GSK3β) of the same compound?
A: The IC50 was over 10 µM.

Q: And the IC50 (PKCα)?
A: Its IC50 is over 10 µM.

Q: What about the IC50 (PKBα) of the same compound?
A: The IC50 was 3.18 µM.

Q: And the IC50 (mTOR)?
A: Its IC50 is over 10 µM.

Q: And the IC50 (Pim-2)?
A: The IC50 was over 10 µM.

Q: And the IC50 (EGRF)?
A: The IC50 was 0.26 µM and 0.255 µM.

Q: And the IC50 (Pim-1)?
A: Its IC50 is over 10 µM.

Q: What about the IC50 (MKK4) of the same compound?
A: The IC50 was over 10 µM.

Q: What about the IC50 (Syk) of the same compound?
A: The IC50 was 0.041 µM.

Q: What about the IC50 (GSK3α) of the same compound?
A: Its IC50 is over 10 µM.

Q: And the IC50 (EphB3)?
A: The IC50 was over 10 µM.

Q: What about the IC50 (PIP4K2α) of the same compound?
A: The IC50 was over 10 µM.
